Results: PMC10408569, “Recruitment of hexahydroquinoline as anticancer scaffold targeting inhibition of wild and mutants EGFR (EGFR^WT, EGFR^T790M, and EGFR^L858R)” (Journal of Enzyme Inhibition and Medicinal Chemistry, 2023)

Experiments:
[1] = test system: SF-295; experiment: NCI-60 anticancer screening (SRB); type: cell-based; conditions: Homo sapiens; SF-295, CNS cancer; one dose 10 μM; read-out: Growth Inhibition Percentage (GI %)
[2] = test system: HS 578T; experiment: NCI-60 anticancer screening (SRB); type: cell-based; conditions: Homo sapiens; HS 578T, breast cancer; one dose 10 μM; read-out: Growth Inhibition Percentage (GI %)
[3] = test system: ACHN; experiment: NCI-60 anticancer screening (SRB); type: cell-based; conditions: Homo sapiens, renal cancer, one dose 10 μM, read-out: Growth Inhibition Percentage (GI %)
[4] = test system: UO-31; experiment: NCI-60 anticancer screening (SRB); type: cell-based; conditions: Homo sapiens; UO-31, renal cancer; one dose 10 μM; read-out: Growth Inhibition Percentage (GI %)
[5] = test system: DU-145; experiment: NCI-60 anticancer screening (SRB); type: cell-based; conditions: Homo sapiens; DU-145, prostate cancer; one dose 10 μM; read-out: Growth Inhibition Percentage (GI %)
[6] = biological target: EGFR^L858R (Homo sapiens, UniProt P00533, L858R); experiment: biochemical
[7] = test system: CCRF-CEM; experiment: NCI-60 anticancer screening (SRB); type: cell-based; conditions: Homo sapiens, leukemia, one dose 10 μM, read-out: Growth Inhibition Percentage (GI %)
[8] = test system: NCI/ADR-RES; experiment: NCI-60 anticancer screening (SRB); type: cell-based; conditions: Homo sapiens, ovarian cancer, one dose 10 μM, read-out: Growth Inhibition Percentage (GI %)
[9] = test system: TK-10; experiment: NCI-60 anticancer screening (SRB); type: cell-based; conditions: Homo sapiens; TK-10, renal cancer; one dose 10 μM; read-out: Growth Inhibition Percentage (GI %)
[10] = test system: HCT-116; experiment: NCI-60 anticancer screening (SRB); type: cell-based; conditions: Homo sapiens; HCT-116, colon cancer; one dose 10 μM; read-out: Growth Inhibition Percentage (GI %)
[11] = test system: SF-539; experiment: NCI-60 anticancer screening (SRB); type: cell-based; conditions: Homo sapiens; SF-539, CNS cancer; one dose 10 μM; read-out: Growth Inhibition Percentage (GI %)
[12] = test system: BT-549; experiment: NCI-60 anticancer screening (SRB); type: cell-based; conditions: Homo sapiens; BT-549, breast cancer; one dose 10 μM; read-out: Growth Inhibition Percentage (GI %)
[13] = biological target: EGFR^T790M (Homo sapiens, UniProt P00533, T790M); experiment: biochemical
[14] = test system: COLO 205; experiment: NCI-60 anticancer screening (SRB); type: cell-based; conditions: Homo sapiens; COLO 205, colon cancer; one dose 10 μM; read-out: Growth Inhibition Percentage (GI %)
[15] = test system: HCC-2998; experiment: NCI-60 anticancer screening (SRB); type: cell-based; conditions: Homo sapiens; HCC-2998, colon cancer; one dose 10 μM; read-out: Growth Inhibition Percentage (GI %)
[16] = test system: OVCAR-5; experiment: NCI-60 anticancer screening (SRB); type: cell-based; conditions: Homo sapiens; OVCAR-5, ovarian cancer; one dose 10 μM; read-out: Growth Inhibition Percentage (GI %)
[17] = test system: LOX IMVI; experiment: NCI-60 anticancer screening (SRB); type: cell-based; conditions: Homo sapiens, melanoma, one dose 10 μM, read-out: Growth Inhibition Percentage (GI %)
[18] = test system: MCF7; experiment: NCI-60 anticancer screening (SRB); type: cell-based; conditions: Homo sapiens; MCF7, breast cancer; one dose 10 μM; read-out: Growth Inhibition Percentage (GI %)
[19] = test system: NCI-H322M; experiment: NCI-60 anticancer screening (SRB); type: cell-based; conditions: Homo sapiens, NSC lung cancer, one dose 10 μM, read-out: Growth Inhibition Percentage (GI %)
[20] = biological target: EGFR^WT (Homo sapiens, UniProt P00533); experiment: EGFR kinase inhibitory assay (HTRF)
[21] = test system: NCI-H226; experiment: NCI-60 anticancer screening (SRB); type: cell-based; conditions: Homo sapiens; NCI-H226, NSC lung cancer; one dose 10 μM; read-out: Growth Inhibition Percentage (GI %)
[22] = test system: SNB-19; experiment: NCI-60 anticancer screening (SRB); type: cell-based; conditions: Homo sapiens; SNB-19, CNS cancer; one dose 10 μM; read-out: Growth Inhibition Percentage (GI %)
[23] = test system: NCI-H522; experiment: NCI-60 anticancer screening (SRB); type: cell-based; conditions: Homo sapiens; NCI-H522, NSC lung cancer; one dose 10 μM; read-out: Growth Inhibition Percentage (GI %)
[24] = test system: SK-MEL-2; experiment: NCI-60 anticancer screening (SRB); type: cell-based; conditions: Homo sapiens; SK-MEL-2, melanoma; one dose 10 μM; read-out: Growth Inhibition Percentage (GI %)
[25] = test system: OVCAR-3; experiment: NCI-60 anticancer screening (SRB); type: cell-based; conditions: Homo sapiens; OVCAR-3, ovarian cancer; one dose 10 μM; read-out: Growth Inhibition Percentage (GI %)
[26] = test system: SN 12C; experiment: NCI-60 anticancer screening (SRB); type: cell-based; conditions: Homo sapiens, SN12C; SN 12C, renal cancer; one dose 10 μM; read-out: Growth Inhibition Percentage (GI %)
[27] = test system: SF-268; experiment: NCI-60 anticancer screening (SRB); type: cell-based; conditions: Homo sapiens; SF-268, CNS cancer; one dose 10 μM; read-out: Growth Inhibition Percentage (GI %)
[28] = test system: RPMI-8226; experiment: NCI-60 anticancer screening (SRB); type: cell-based; conditions: Homo sapiens; RPMI-8226, leukemia; one dose 10 μM; read-out: Growth Inhibition Percentage (GI %)
[29] = test system: RXF 393; experiment: NCI-60 anticancer screening (SRB); type: cell-based; conditions: Homo sapiens; RXF 393, renal cancer; one dose 10 μM; read-out: Growth Inhibition Percentage (GI %)
[30] = test system: U251; experiment: NCI-60 anticancer screening (SRB); type: cell-based; conditions: Homo sapiens, U-251; U251, CNS cancer; one dose 10 μM; read-out: Growth Inhibition Percentage (GI %)
[31] = test system: MDA-MB-468; experiment: NCI-60 anticancer screening (SRB); type: cell-based; conditions: Homo sapiens; MDA-MB-468, breast cancer; one dose 10 μM; read-out: Growth Inhibition Percentage (GI %)

Chain of EGFR^WT (P00533 25-1210): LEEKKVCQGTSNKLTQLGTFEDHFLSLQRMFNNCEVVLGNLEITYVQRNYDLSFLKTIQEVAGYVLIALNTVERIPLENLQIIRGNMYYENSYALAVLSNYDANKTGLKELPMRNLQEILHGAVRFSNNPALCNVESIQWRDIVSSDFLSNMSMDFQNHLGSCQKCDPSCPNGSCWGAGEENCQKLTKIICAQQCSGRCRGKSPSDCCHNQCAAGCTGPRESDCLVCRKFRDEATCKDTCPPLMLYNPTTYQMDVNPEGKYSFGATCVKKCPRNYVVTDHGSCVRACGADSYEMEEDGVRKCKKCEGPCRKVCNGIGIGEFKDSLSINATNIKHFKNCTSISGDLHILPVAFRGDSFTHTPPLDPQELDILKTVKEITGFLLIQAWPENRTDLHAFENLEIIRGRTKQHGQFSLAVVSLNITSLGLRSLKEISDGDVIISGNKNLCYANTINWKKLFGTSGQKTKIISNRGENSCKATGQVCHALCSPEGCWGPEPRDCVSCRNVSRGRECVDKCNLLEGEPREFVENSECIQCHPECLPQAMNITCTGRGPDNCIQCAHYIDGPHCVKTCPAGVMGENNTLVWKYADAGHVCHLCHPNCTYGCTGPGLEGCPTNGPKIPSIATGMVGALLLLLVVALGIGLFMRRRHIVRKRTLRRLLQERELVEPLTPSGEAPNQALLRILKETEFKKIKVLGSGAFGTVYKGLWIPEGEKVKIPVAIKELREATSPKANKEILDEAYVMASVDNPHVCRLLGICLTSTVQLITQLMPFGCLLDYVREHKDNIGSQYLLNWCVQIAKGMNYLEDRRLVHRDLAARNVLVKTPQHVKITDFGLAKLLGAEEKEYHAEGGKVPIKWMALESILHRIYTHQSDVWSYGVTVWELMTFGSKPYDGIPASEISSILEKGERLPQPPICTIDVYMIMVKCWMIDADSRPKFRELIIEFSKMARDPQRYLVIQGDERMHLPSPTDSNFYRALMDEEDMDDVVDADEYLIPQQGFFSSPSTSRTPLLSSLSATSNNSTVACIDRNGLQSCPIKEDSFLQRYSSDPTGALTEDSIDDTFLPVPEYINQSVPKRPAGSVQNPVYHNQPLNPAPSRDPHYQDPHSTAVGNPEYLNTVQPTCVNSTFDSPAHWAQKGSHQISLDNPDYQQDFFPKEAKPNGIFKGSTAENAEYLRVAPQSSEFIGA
Chain of EGFR^T790M (P00533 25-1210 T790M): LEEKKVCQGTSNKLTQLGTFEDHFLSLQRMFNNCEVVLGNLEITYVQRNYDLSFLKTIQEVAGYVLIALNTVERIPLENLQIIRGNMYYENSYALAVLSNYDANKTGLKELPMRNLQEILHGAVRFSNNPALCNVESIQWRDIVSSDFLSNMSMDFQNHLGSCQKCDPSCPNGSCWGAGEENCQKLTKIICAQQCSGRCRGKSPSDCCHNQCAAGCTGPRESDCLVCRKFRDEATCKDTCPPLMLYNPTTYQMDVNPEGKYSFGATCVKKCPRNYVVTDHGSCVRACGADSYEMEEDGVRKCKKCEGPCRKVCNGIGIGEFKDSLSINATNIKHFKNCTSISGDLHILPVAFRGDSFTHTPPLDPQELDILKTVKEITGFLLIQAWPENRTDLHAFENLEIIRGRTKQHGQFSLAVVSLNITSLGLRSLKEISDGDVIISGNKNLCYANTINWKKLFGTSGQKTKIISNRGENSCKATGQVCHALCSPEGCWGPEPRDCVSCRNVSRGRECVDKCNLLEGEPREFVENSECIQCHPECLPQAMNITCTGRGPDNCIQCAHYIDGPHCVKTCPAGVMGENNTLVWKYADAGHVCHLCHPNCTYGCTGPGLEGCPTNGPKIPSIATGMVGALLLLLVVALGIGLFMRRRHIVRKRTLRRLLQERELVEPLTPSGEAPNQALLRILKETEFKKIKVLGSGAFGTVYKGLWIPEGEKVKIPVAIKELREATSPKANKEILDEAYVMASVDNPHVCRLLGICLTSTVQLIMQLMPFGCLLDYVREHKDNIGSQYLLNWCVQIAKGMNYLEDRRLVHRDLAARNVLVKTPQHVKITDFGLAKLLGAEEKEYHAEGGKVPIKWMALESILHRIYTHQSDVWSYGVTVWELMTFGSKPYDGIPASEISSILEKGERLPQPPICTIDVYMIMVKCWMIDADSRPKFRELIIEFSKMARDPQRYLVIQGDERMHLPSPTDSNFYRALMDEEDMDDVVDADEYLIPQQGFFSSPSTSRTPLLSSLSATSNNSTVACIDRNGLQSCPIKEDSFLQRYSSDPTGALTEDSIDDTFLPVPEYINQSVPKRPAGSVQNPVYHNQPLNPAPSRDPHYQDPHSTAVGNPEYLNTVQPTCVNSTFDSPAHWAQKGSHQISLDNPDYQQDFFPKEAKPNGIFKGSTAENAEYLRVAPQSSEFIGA
Chain of EGFR^L858R (P00533 25-1210 L858R): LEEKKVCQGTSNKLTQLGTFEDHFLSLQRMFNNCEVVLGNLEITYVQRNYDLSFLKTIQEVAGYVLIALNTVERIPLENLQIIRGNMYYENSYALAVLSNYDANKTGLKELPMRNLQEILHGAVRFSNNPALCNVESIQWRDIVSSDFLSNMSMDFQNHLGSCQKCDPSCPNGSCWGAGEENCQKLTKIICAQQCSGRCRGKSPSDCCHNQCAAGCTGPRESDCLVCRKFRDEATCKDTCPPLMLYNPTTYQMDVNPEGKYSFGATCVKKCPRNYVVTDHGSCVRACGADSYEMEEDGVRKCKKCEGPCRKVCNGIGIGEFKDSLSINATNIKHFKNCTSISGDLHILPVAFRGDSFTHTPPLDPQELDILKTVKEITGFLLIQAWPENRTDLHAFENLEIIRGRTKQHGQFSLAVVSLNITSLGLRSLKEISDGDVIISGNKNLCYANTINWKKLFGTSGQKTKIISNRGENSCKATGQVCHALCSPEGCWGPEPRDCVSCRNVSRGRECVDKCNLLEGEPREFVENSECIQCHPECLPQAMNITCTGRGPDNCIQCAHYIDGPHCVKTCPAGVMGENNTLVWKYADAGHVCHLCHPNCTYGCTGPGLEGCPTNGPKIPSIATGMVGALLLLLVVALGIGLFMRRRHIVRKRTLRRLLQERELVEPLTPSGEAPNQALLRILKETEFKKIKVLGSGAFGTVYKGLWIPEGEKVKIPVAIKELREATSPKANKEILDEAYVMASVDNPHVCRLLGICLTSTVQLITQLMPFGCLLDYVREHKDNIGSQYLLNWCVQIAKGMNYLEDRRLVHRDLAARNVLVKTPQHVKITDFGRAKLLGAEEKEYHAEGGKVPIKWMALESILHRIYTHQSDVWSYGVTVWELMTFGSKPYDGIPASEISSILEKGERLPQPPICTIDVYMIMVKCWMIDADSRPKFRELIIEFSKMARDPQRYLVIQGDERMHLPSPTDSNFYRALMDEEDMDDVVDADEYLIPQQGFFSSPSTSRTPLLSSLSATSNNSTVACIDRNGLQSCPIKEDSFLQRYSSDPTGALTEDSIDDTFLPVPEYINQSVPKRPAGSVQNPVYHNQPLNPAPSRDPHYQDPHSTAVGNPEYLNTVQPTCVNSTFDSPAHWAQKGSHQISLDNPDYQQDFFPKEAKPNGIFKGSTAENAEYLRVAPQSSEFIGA

| SMILES | inhibition at 10 µM [1] [%] | inhibition at 10 µM [2] [%] | inhibition at 10 µM [3] [%] | inhibition at 10 µM [4] [%] | inhibition at 10 µM [5] [%] | IC50 [6] [nM] | inhibition at 10 µM [7] [%] | inhibition at 10 µM [8] [%] | inhibition at 10 µM [9] [%] | inhibition at 10 µM [10] [%] | inhibition at 10 µM [11] [%] | inhibition at 10 µM [12] [%] | IC50 [13] [nM] | inhibition at 10 µM [14] [%] | inhibition at 10 µM [15] [%] | inhibition at 10 µM [16] [%] | inhibition at 10 µM [17] [%] | inhibition at 10 µM [18] [%] | inhibition at 10 µM [19] [%] | IC50 [20] [nM] | further results |
| --- | --- | --- | --- | --- | --- | --- | --- | --- | --- | --- | --- | --- | --- | --- | --- | --- | --- | --- | --- | --- | --- |
| CCOC(=O)C1=C(N)N(c2ccc(Cl)cc2)C2=C(C(=O)CC(C)(C)C2)C1c1ccc(F)cc1 (racemic) [8b, (±)-Ethyl 2-amino-1–(4-chlorophenyl)-4–(4-fluoroyphenyl)-7,7-dimethyl-5-oxo-1,4,5,6,7,8-hexahydroquinoline-3-carboxylate] | 12 | < 10 | < 10 | 30 | < 10 | 770 ± 6 | 26 | 12 | < 10 | 34 | < 10 | 13 | 650 ± 4 | 13 | < 10 | < 10 | 14 | 25 | < 10 | 186 ± 100 | inhibition at 10 µM [21]: < 10%; inhibition at 10 µM [22]: 22%; inhibition at 10 µM [23]: 40%; inhibition at 10 µM [24]: 20%; inhibition at 10 µM [25]: < 10%; inhibition at 10 µM [26]: < 10%; inhibition at 10 µM [27]: < 10%; inhibition at 10 µM [28]: < 10%; inhibition at 10 µM [29]: 17%; inhibition at 10 µM [30]: 21%; inhibition at 10 µM [31]: 17% |
| CCOC(=O)C1=C(N)N(c2ccccc2)C2=C(C(=O)CC(C)(C)C2)C1c1ccc(Cl)cc1 (racemic) [8c, (±)-Ethyl 2-amino-4–(4-chlorophenyl)-7,7-dimethyl-5-oxo-1-phenyl-1,4,5,6,7,8-hexahydroquinoline-3-carboxylate] | 79 | 28 | 78 | 71 | 42 | 812 ± 5 | 85 | 74 | 20 | 81 | 64 | 57 | 820 ± 6 | 118 | 57 | 42 | 59 | 83 | 35 | 194 ± 90 | inhibition at 10 µM [21]: 30%; inhibition at 10 µM [22]: 85%; inhibition at 10 µM [23]: 62%; inhibition at 10 µM [24]: 70%; inhibition at 10 µM [25]: 48%; inhibition at 10 µM [26]: 46%; inhibition at 10 µM [27]: 42%; inhibition at 10 µM [28]: 92%; inhibition at 10 µM [29]: < 10%; inhibition at 10 µM [30]: 58%; inhibition at 10 µM [31]: 67% |
| CCOC(=O)C1=C(N)N(c2ccc(Cl)cc2)C2=C(C(=O)CC(C)(C)C2)C1c1ccc(Cl)cc1 (racemic) [8e, (±)-Ethyl 2-amino-1,4-bis (4-chlorophenyl)-7,7-dimethyl-5-oxo-1,4,5,6,7,8-hexahydroquinoline-3-carboxylate] | 33 | 44 | 32 | 34 | 12 | 351 ± 2 | 61 | 32 | 11 | 45 | 26 | 21 | 693 ± 5 | 53 | 11 | < 10 | 11 | 56 | < 10 | 300 ± 120 | inhibition at 10 µM [21]: < 10%; inhibition at 10 µM [22]: 31%; inhibition at 10 µM [23]: 19%; inhibition at 10 µM [24]: < 10%; inhibition at 10 µM [25]: 16%; inhibition at 10 µM [26]: < 10%; inhibition at 10 µM [27]: 22%; inhibition at 10 µM [28]: 90%; inhibition at 10 µM [29]: 35%; inhibition at 10 µM [30]: 31%; inhibition at 10 µM [31]: 33% |
| CCOC(=O)C1=C(N)N(c2ccccc2)C2=C(C(=O)CC(C)(C)C2)C1c1cccc(Cl)c1Cl (racemic) [10a, (±)-Ethyl 2-amino-4–(2,3-dichlorophenyl)-7,7-dimethyl-5-oxo-1-phenyl-1,4,5,6,7,8-hexahydroquinoline-3-carboxylate] | 46 | < 10 | 42 | 25 | 19 | 490 ± 3 | 45 | 49 | < 10 | 60 | 67 | 31 | 532 ± 4 | 19 | 13 | 12 | 22 | 40 | 22 | 145 ± 30 | inhibition at 10 µM [21]: 60%; inhibition at 10 µM [22]: 58%; inhibition at 10 µM [23]: 25%; inhibition at 10 µM [24]: 41%; inhibition at 10 µM [25]: 13%; inhibition at 10 µM [26]: 37%; inhibition at 10 µM [27]: 34%; inhibition at 10 µM [28]: 49%; inhibition at 10 µM [29]: 47%; inhibition at 10 µM [30]: 45%; inhibition at 10 µM [31]: 52% |
| CCOC(=O)C1=C(N)N(c2ccc(Cl)cc2)C2=C(C(=O)CC(C)(C)C2)C1c1cccc(Cl)c1Cl (racemic) [10b, (±)-Ethyl 2-amino-1–(4-chorophenyl)-4–(2,3-dichlorophenyl)-7,7-dimethyl-5-oxo-1-phenyl-1,4,5,6,7,8-hexahydroquinoline-3-carboxylate] | 26 | < 10 | 54 | 49 | 18 | 878 ± 6 | 64 | 32 | < 10 | 71 | 22 | 31 | 954 ± 8 | 41 | 18 | < 10 | < 10 | 52 | < 10 | 205 ± 90 | inhibition at 10 µM [21]: 42%; inhibition at 10 µM [22]: 22%; inhibition at 10 µM [23]: 30%; inhibition at 10 µM [24]: 20%; inhibition at 10 µM [25]: 44%; inhibition at 10 µM [26]: 35%; inhibition at 10 µM [27]: 22%; inhibition at 10 µM [28]: 73%; inhibition at 10 µM [29]: 27%; inhibition at 10 µM [30]: 22%; inhibition at 10 µM [31]: 68% |
